Laboratory results: the supplement of paper PMC4862054

Columns and labels:
Conditions in all cases: incubation time: 72 h
[1] = tested on: BT-474; test: normalised response (% of control), CellTox Green; higher = less cell death (100 = DMSO, 0 = benzethonium chloride kill control)
How it was run: (§1)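 Breast cancer cell lines, seeded at 20 µl suspension per well, were incubated for 72 h in 384-well plates containing compound at 5 concentrations. These concentrations rose in 10-fold steps over a 10,000-fold range set for each compound. CellTox Green fluorescence (485/520 nm) was read, then CellTiter-Glo luminescence after 10 min at room temperature, and each plate was normalised to 0.1 % DMSO (100) and a positive kill control (0). Values are normalised signals, each at one concentration.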

[2] = tested on: BT-549; test: as above
How it was run: as §1

[3] = tested on: CAL-120; test: as above
How it was run: as §1

[4] = tested on: CAL-148; test: as above
How it was run: as §1

[5] = tested on: CAL-51; test: as above
How it was run: as §1

[6] = tested on: CAL-85-1; test: as above
How it was run: as §1

[7] = tested on: DU-4475; test: as above
How it was run: as §1

[8] = tested on: HCC1143; test: as above
How it was run: as §1

[9] = tested on: HCC1599; test: as above
How it was run: as §1

[10] = tested on: HCC1937; test: as above
How it was run: as §1

[11] = tested on: HDQ-P1; test: as above
How it was run: as §1

[12] = tested on: Hs578T; test: as above
How it was run: as §1

[13] = tested on: MCF-10A; test: as above
How it was run: as §1

[14] = tested on: MDA-MB-231; test: as above
How it was run: as §1

[15] = tested on: MDA-MB-436; test: as above
How it was run: as §1

[16] = tested on: MDA-MB-453; test: as above
How it was run: as §1

[17] = tested on: MDA-MB-468; test: as above
How it was run: as §1

[18] = tested on: MFM-223; test: as above
How it was run: as §1

[19] = tested on: BT-474; test: normalised response (% of control), CellTiter-Glo; higher = more viable cells (100 = DMSO, 0 = benzethonium chloride kill control)
Experimental: (§2)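 DSRT, 72 h incubation, CellTox Green / CellTiter-Glo readout. Signal is normalised to DMSO and benzethonium chloride controls. Value is the normalised response at the highest dose.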

[20] = tested on: BT-549; test: as above
Experimental: as §2

[21] = tested on: CAL-120; test: as above
Experimental: as §2

[22] = tested on: CAL-148; test: as above
Experimental: as §2

[23] = tested on: CAL-51; test: as above
Experimental: as §2

[24] = tested on: CAL-85-1; test: as above
Experimental: as §2

[25] = tested on: DU-4475; test: as above
Experimental: as §2

[26] = tested on: HCC1143; test: as above
Experimental: as §2

[27] = tested on: HCC1599; test: as above
Experimental: as §2

[28] = tested on: HCC1937; test: as above
Experimental: as §2

[29] = tested on: HDQ-P1; test: as above
Experimental: as §2

[30] = tested on: Hs578T; test: as above
Experimental: as §2

[31] = tested on: MCF-10A; test: as above
Experimental: as §2

[32] = tested on: MDA-MB-231; test: as above
Experimental: as §2

[33] = tested on: MDA-MB-436; test: as above
Experimental: as §2

[34] = tested on: MDA-MB-453; test: as above
Experimental: as §2

[35] = tested on: MDA-MB-468; test: as above
Experimental: as §2

[36] = tested on: MFM-223; test: as above
Experimental: as §2

[37] = tested on: SK-BR-3; test: as above
Experimental: as §2

SMILES	normalised response [1] [%]	normalised response [2] [%]	normalised response [3] [%]	normalised response [4] [%]	normalised response [5] [%]	normalised response [6] [%]	normalised response [7] [%]	normalised response [8] [%]	normalised response [9] [%]	normalised response [10] [%]	normalised response [11] [%]	normalised response [12] [%]	normalised response [13] [%]	normalised response [14] [%]	normalised response [15] [%]	normalised response [16] [%]	normalised response [17] [%]	normalised response [18] [%]	normalised response [19] [%]	normalised response [20] [%]	normalised response [21] [%]	normalised response [22] [%]	normalised response [23] [%]	normalised response [24] [%]	normalised response [25] [%]	normalised response [26] [%]	normalised response [27] [%]	normalised response [28] [%]	normalised response [29] [%]	normalised response [30] [%]	normalised response [31] [%]	normalised response [32] [%]	normalised response [33] [%]	normalised response [34] [%]	normalised response [35] [%]	normalised response [36] [%]	normalised response [37] [%]
CCn1c(-c2nonc2N)nc2cnc(Oc3cccc(NC(=O)c4ccc(OCCN5CCOCC5)cc4)c3)cc21 (10000 nM)	98	100	103	-66.5	43.7	109	97.6	-33.8	97.9	78.5	109	110	93.4	52.4	74.1	108	74.3	93.6	66	41.4	58.5	69.9	32.8	87.8	80	76.4	74.6	76.6	75.9	49	62.9	64.4	73.3	72.2	50.7	62.1	40.9
COc1cc(O)c2c(c1)/C=C/C[C@H](O)[C@H](O)C(=O)/C=C\C[C@H](C)OC2=O [(5Z)-7-Oxozeaenol] (10000 nM)	54.5	79.2	83.6	56.2	45.5	27.7	57.9	135	97.8	-41.8	87.9	49.4	64.3	28.4	102	85.9	51.8	67.3	14	4.83	41.3	26.9	3.02	13.9	4.88	39.9	32.7	32.5	20.5	9.82	34.5	4.8	25.1	38.5	21.4	25.6	23.5
CNC(=O)c1cccc(-c2ccc3c(N4CCOC[C@@H]4C)nc(N4CCOC[C@@H]4C)nc3n2)c1 [AZD2014] (10000 nM)	96.4	74.9	106	58.9	90.1	77.8	86.3	110	95	108	104	129	96	107	95	95.2	136	93.4	49.6	19.9	23.6	15.3	20.6	27.3	23.8	25.4	65.3	42.3	34.1	27.4	33.9	46.2	54.4	33	25.6	33.6	20
Nc1cc(C(F)(F)F)c(-c2cc(N3CCOCC3)nc(N3CCOCC3)n2)cn1 [Buparlisib] (10000 nM)	24	33.8	92.1	70	-15.4	104	95.8	68.6	93.4	50.4	85.7	18	79.4	29.4	75.9	97.9	111	81.7	15.8	3.53	56.3	79.9	1.1	83.3	80.2	57.4	94.3	36.2	46.9	75	36	48	65.4	75.6	11.3	47.8	81.5
